Here are results for twelve compounds from PubChem BioAssay (NCI).

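The compound was tested at five concentrations on cells cultured in 96-well plates, with a 48-hour exposure period. TGI: concentration producing complete growth inhibition.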

Common to all, as to assay: NCI anticancer screen, dose series, 48 h
In experiment [1] the test system is NCI-H23 lung.
Experiment [2] deals with UACC-257 melanoma.
Experiment [3] deals with NCI-H522 lung.
Experiment [4] deals with SK-MEL-28 melanoma.
In experiment [5] the test system is UO-31 renal.
The subject of experiment [6] is CAKI-1 renal.
Experiment [7] deals with K-562 leukemia.
For experiment [8], the system named is RXF 393 renal.
For experiment [9], the system named is SN12C renal.
Experiment [10] concerns NCI-H226 lung.
Experiment [11] deals with LOX IMVI melanoma.
For experiment [12], the system named is OVCAR-3 ovarian.
The subject of experiment [13] is TK-10 renal.

As for `CSc1nc2c(c(=O)n1C)N=C(c1ccc([N+](=O)[O-])cc1)CC(c1ccccc1)N2` (stereo unspecified), the TGI in experiment [1], in [2], in experiment [3], in [4], in experiment [5] and in experiment [6] was greater than 100 µM in each case. Further, the TGI in experiment [7], in experiment [8], in experiment [9], in experiment [10], in [11] and in [12] was greater than 100 µM each time.
Regarding `COc1ccccc1C(O)[C@@H]1C[C@@H]2[C@H]3CC[C@@](C)([C@@H]2O1)C3(C)C` (stereo partly specified), the TGI in experiment [1] amounted to 50.5 µM; in experiment [2], 39 µM; in experiment [3], 38.5 µM; in [4], 37.3 µM; in experiment [5] it was 32.4 µM; in experiment [6], 56.4 µM. For the same compound, the TGI in experiment [13] stood at 50.7 µM; in experiment [7] it was 52.3 µM; in [8], 32.6 µM; in experiment [9] it was 30.3 µM; in experiment [11], 35.8 µM; in [12], 31.3 µM.
For the compound `COc1ccc(-c2c3c(n(C4OC(CO)C(O)C(O)C4O)c(=S)c2C#N)CCCC3)cc1` (stereo unspecified), the TGI in [1], in experiment [2], in [6], in [13], in experiment [8] and in experiment [9] was greater than 100 µM throughout. In addition, the TGI in [10], in experiment [11] and in experiment [12] was greater than 100 µM throughout.
For `CCC1(c2ccc(N3C(=O)c4cc(OC)c(OC)cc4C3=O)cc2)CCC(=O)NC1=O` (stereo unspecified), the TGI in experiment [1], in [2], in experiment [4], in experiment [5], in experiment [6] and in experiment [13] was greater than 10 µM throughout. Moreover, the TGI in [7], in experiment [8], in experiment [9], in experiment [10], in experiment [11] and in experiment [12] was greater than 10 µM each time.
Take `Nc1nc(NCCCO)cc(=O)[nH]1`: the TGI in experiment [1], in experiment [2], in experiment [3], in experiment [4], in experiment [5] and in experiment [6] was greater than 100 µM throughout. Also, the TGI in experiment [7], in [8], in experiment [9], in experiment [10], in experiment [11] and in experiment [12] was greater than 100 µM each time.
`CN(CCCNC(=O)c1cn(C)c2c1Cc1ccccc1-2)CCCNC(=O)c1cn(C)c2c1Cc1ccccc1-2`: the TGI in experiment [1] was found to be 29.5 µM; in experiment [2], 18.9 µM; in [4] it was 24 µM; in experiment [5], 21.8 µM; in experiment [6] it was 28.4 µM; in experiment [13], 25.1 µM. Besides, the TGI is 17 µM in experiment [7]; 34.9 µM in experiment [8]; 27 µM in experiment [9]; 41.4 µM in [10]; 24.6 µM in experiment [11]; 31.3 µM in [12].
On to `Cc1ccc2c(=O)cc(-c3ccc(C)s3)[nH]c2n1`, for which the TGI in experiment [2] was greater than 100 µM; in experiment [5] it was 1.43 µM; in experiment [6], greater than 100 µM; in experiment [13], greater than 100 µM; in [7], greater than 100 µM; in experiment [9], greater than 55.9 µM. The TGI in experiment [10] was 2.45 µM; in experiment [11], greater than 42.9 µM; in experiment [12] it was greater than 46.8 µM.
As for `CCOC(=O)c1c(NC(=S)Nc2ccc(Cl)cc2)sc2c1CCN(C)C2`, the TGI in experiment [1], in experiment [2], in experiment [5], in experiment [6], in [13] and in [7] was greater than 100 µM each time. For the same compound, the TGI in experiment [8], in experiment [9], in experiment [10] and in experiment [12] was greater than 100 µM each time.
As to `C=C1C(=O)O[C@H]2C1C[C@@H](OC(C)=O)/C(C)=C/CC[C@@]1(C)O[C@H]21` (stereo partly specified), the TGI worked out at 37.2 µM in [1]; 19.6 µM in [2]; 10.2 µM in [3]; 24.9 µM in [4]; 17 µM in [5]; 22.1 µM in [6]. Moreover, the TGI was found to be 17.4 µM in experiment [13]; 39.5 µM in experiment [7]; 20.2 µM in experiment [8]; 29.2 µM in experiment [9]; 19.1 µM in [11].
On to `CC(=O)O[C@H]1C(=O)[C@@]2(C)[C@H]([C@H](OC(=O)c3ccccc3)[C@]3(O)C[C@H](OC(=O)[C@H](O)[C@@H](NC(=O)c4ccco4)c4ccccc4)C(C)=C1C3(C)C)[C@]1(OC(C)=O)CO[C@@H]1C[C@@H]2O`, for which the TGI in experiment [1], in experiment [3], in experiment [4], in experiment [5], in experiment [6] and in experiment [13] was greater than 12.5 µM in each case. Moreover, the TGI in experiment [7] was less than 0.00125 µM; in [11] it was greater than 12.5 µM; in experiment [12] it was 0.00548 µM.
Take `Cc1cc(=O)oc2cc(OCC(O)COC(C)C)ccc12` (stereo unspecified): the TGI in [1], in experiment [2], in experiment [3], in [4], in experiment [5] and in experiment [6] was greater than 100 µM each time. Further, the TGI in experiment [13], in [7], in [9], in experiment [11] and in experiment [12] was greater than 100 µM in each case.
For the compound `Cn1c2ccccc2c(=O)c2c(O)cc3c(c21)C=CC(C)(C)O3`, the TGI in experiment [1] is greater than 25 µM; in [2] it was greater than 25 µM; in experiment [3] it was greater than 25 µM; in experiment [4] it was greater than 25 µM; in experiment [5], greater than 25 µM; in [6], greater than 10.1 µM. For the same compound, the TGI in experiment [7], in experiment [8], in experiment [9], in experiment [10], in [11] and in [12] was greater than 25 µM in each case.
